Legend:
Interstitial collagenase = target: T1, Interstitial collagenase (Homo sapiens, UniProt P03956)
T1 sequence (P03956 whole entry): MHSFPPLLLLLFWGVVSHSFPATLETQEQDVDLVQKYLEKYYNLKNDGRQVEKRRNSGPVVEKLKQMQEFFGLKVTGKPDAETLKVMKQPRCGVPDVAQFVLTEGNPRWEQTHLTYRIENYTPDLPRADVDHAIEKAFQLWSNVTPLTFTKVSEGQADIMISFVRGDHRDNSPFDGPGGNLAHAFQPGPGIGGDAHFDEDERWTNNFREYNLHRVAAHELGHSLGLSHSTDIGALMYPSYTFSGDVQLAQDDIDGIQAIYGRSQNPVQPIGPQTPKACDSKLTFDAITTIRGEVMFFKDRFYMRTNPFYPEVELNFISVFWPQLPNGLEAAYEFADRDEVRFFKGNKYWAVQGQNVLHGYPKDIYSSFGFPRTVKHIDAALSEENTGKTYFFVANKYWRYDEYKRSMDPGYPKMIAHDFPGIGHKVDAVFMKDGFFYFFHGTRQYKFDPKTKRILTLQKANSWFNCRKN
Description: Inhibition of human recombinant MMP1 by colorimetric analysis

[1] = target: Matrix metalloproteinase-9 (Homo sapiens, UniProt P14780)
Description: Inhibition of human recombinant MMP9 by colorimetric analysis

[2] = target: Macrophage metalloelastase (Homo sapiens, UniProt P39900)
Description: Inhibition of human recombinant MMP12 by colorimetric analysis

Neutrophil collagenase = Neutrophil collagenase (Homo sapiens, UniProt P22894)
Description: Inhibition of human recombinant MMP8 by colorimetric analysis

[3] = target: Matrix metalloproteinase-14 (Homo sapiens, UniProt P50281)
Description: Inhibition of human recombinant MMP14 by colorimetric analysis

A549 [4] = assay: cells; format: functional; conditions: Homo sapiens, A549, 48 h
Description: Cytotoxicity against human A549 cells assessed as cell viability at 300 uM after 48 hrs by MTT assay

A549 [5] = assay: cells; format: functional; conditions: Homo sapiens, A549, 48 h; remark: listed apart in the source
Description: Cytotoxicity against human A549 cells assessed as cell viability at 100 uM after 48 hrs by MTT assay

A549 [6] = assay: cells; format: functional; conditions: Homo sapiens, A549, 24 h
Description: Reduction of MMP2 expression in human A549 cells at 50 uM after 24 hrs by confocal microsocopy

A549 [7] = assay: cells; format: functional; conditions: Homo sapiens, A549, 48 h; remark: listed apart in the source
A549 [8] = assay: cells; format: functional; conditions: Homo sapiens, A549, 48 h; remark: listed apart in the source
A549 [9] = assay: cells; format: functional, cell-based; conditions: Homo sapiens, A549, 48 h
Description: Cytotoxicity against human A549 cells assessed as cell viability after 48 hrs by MTT assay

Sequence of Neutrophil collagenase (P22894 whole entry): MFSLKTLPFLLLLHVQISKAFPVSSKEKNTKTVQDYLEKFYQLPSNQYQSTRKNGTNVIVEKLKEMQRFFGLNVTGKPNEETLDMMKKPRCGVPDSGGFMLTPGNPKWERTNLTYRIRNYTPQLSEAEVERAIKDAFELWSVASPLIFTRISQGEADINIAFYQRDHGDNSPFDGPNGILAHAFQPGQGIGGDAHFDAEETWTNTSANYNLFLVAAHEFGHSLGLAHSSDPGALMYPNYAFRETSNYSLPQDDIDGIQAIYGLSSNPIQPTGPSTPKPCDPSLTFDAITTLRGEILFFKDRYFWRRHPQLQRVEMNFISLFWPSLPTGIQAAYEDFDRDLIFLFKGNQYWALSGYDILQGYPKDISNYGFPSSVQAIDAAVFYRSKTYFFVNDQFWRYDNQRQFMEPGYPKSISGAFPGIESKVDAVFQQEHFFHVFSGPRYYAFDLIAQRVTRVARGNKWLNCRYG
Sequence of Matrix metalloproteinase-9 (P14780 whole entry): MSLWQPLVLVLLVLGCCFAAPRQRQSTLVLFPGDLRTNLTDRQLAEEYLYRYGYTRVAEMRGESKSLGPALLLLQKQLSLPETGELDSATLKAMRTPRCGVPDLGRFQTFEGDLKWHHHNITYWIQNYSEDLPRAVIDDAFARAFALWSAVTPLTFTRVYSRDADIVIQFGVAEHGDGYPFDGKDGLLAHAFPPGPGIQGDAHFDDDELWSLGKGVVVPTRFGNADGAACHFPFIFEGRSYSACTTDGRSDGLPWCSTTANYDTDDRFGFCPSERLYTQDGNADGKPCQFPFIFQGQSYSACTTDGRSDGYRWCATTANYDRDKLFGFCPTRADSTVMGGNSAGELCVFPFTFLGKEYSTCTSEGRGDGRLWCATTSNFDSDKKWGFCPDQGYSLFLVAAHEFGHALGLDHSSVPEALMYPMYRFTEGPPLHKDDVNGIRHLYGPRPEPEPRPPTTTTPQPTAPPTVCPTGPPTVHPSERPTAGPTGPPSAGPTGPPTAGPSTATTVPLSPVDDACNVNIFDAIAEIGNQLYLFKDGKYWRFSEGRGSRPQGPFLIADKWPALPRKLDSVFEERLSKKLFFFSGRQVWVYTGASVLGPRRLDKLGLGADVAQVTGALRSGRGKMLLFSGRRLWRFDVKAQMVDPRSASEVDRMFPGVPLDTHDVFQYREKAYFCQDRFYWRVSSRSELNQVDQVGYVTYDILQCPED
Sequence of Macrophage metalloelastase (P39900 whole entry): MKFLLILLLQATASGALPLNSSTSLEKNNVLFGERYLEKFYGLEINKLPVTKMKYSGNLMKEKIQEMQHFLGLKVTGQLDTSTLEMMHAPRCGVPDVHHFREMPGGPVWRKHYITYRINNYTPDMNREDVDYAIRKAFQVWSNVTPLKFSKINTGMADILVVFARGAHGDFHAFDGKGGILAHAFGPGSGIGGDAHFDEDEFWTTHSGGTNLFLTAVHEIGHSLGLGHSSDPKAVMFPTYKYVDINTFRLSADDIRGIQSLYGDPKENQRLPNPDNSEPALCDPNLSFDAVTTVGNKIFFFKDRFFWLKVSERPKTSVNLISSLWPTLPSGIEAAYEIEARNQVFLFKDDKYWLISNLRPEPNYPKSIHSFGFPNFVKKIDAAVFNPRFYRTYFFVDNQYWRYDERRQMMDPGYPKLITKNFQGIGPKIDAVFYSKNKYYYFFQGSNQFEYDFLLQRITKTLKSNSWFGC

Row | SMILES | IC50 (Interstitial collagenase) [nM] | IC50 [1] [nM] | IC50 [2] [nM] | IC50 (Neutrophil collagenase) [nM] | IC50 [3] [nM] | IC50 (A549 [9]) [nM] | viability at 300 µM (A549 [4]) [%] | viability at 100 µM (A549 [5]) [%] | inhibition at 50 µM (A549 [6]) [%] | viability at 100 µM (A549 [7]) [%] | viability at 200 µM (A549 [8]) [%]
1 | O=C(CC[C@H](NS(=O)(=O)c1ccc(-c2ccccc2)cc1)C(=O)O)NCCc1ccccc1 | > 10000 | 7000 | 297 | 104 | 6880 | – | – | – | – | – | –
2 | CCCCCCNC(=O)CC[C@H](NS(=O)(=O)c1ccc(-c2ccccc2)cc1)C(=O)O | > 10000 | 5880 | 96.1 | 81.4 | 807 | – | 65 | 80 | – | – | –
3 | CCCCCNC(=O)CC[C@H](NS(=O)(=O)c1ccc(-c2ccccc2)cc1)C(=O)O | > 10000 | 5720 | 52.3 | 59 | 1000 | – | 61 | 80 | ≤ 52.1 | – | –
4 | CCNC(=O)CC[C@H](NS(=O)(=O)c1ccc(-c2ccccc2)cc1)C(=O)O | – | 8710 | – | – | – | – | – | – | – | – | –
5 | CCCCCNC(=O)CC[C@H](NS(=O)(=O)c1ccc(-c2ccc(Br)cc2)cc1)C(=O)O | – | 5490 | – | – | – | – | – | – | – | – | –
6 | CCCNC(=O)CC[C@H](NS(=O)(=O)c1ccc(-c2ccccc2)cc1)C(=O)O | > 10000 | 11300 | – | 45.3 | 7780 | – | – | – | – | – | –
7 | O=C(CC[C@H](NS(=O)(=O)c1ccc(-c2ccccc2)cc1)C(=O)O)Nc1ccccc1 | > 10000 | 4280 | 296 | 56.2 | 1390 | – | 78 | 80 | – | – | –
8 | CC(C)CNC(=O)CC[C@H](NS(=O)(=O)c1ccc(-c2ccccc2)cc1)C(=O)O | > 10000 | 8170 | 247 | 226 | 8810 | – | 79 | 80 | – | – | –
9 | CC(C)NC(=O)CC[C@H](NS(=O)(=O)c1ccc(-c2ccccc2)cc1)C(=O)O | – | 7410 | – | – | – | – | – | – | – | – | –
10 | NC(=O)CC[C@H](NS(=O)(=O)c1ccc(-c2ccccc2)cc1)C(=O)O | – | 7430 | – | – | – | – | – | – | – | – | –
11 | CNC(=O)CC[C@H](NS(=O)(=O)c1ccc(-c2ccccc2)cc1)C(=O)O | – | 38400 | – | – | – | – | – | – | – | – | –
12 | O=C(CC[C@H](NS(=O)(=O)c1ccc(-c2ccc(Br)cc2)cc1)C(=O)O)NCc1ccccc1 | – | 5990 | – | – | – | – | – | – | – | – | –
13 | O=C(CC[C@H](NS(=O)(=O)c1ccc(-c2ccccc2)cc1)C(=O)O)NCc1cc(C(F)(F)F)cc(C(F)(F)F)c1 | > 10000 | 6740 | 462 | 228 | 6310 | 270000 | 43 | 80 | ≤ 78.9 | 98.5 | 96.1
14 | CC(C)(C)NC(=O)CC[C@H](NS(=O)(=O)c1ccc(-c2ccccc2)cc1)C(=O)O | – | 8500 | – | – | – | – | – | – | – | – | –

Now those with a lower IC50 [1], led by results:

Row | IC50 (Interstitial collagenase) [nM] | IC50 [1] [nM] | IC50 [2] [nM] | IC50 (Neutrophil collagenase) [nM] | IC50 [3] [nM] | IC50 (A549 [9]) [nM] | SMILES | viability at 300 µM (A549 [4]) [%] | viability at 100 µM (A549 [5]) [%] | inhibition at 50 µM (A549 [6]) [%] | viability at 100 µM (A549 [7]) [%] | viability at 200 µM (A549 [8]) [%]
15 | – | 1820 | – | – | – | – | COc1ccc(CNC(=O)CC[C@H](NS(=O)(=O)c2ccc(-c3ccccc3)cc2)C(=O)O)cc1 | – | – | – | – | –
16 | > 10000 | 715 | 71 | 59.6 | 4640 | – | CCCCNC(=O)CC[C@H](NS(=O)(=O)c1ccc(-c2ccccc2)cc1)C(=O)O | 59 | 80 | – | – | –
17 | > 10000 | 492 | 53.2 | 21.3 | 427 | – | O=C(CC[C@H](NS(=O)(=O)c1ccc(-c2ccccc2)cc1)C(=O)O)NCc1ccccc1 | 66 | 80 | ≤ 60.5 | 98.3 | 95.8
18 | > 10000 | 1160 | 84 | 47 | 5420 | – | O=C(CC[C@H](NS(=O)(=O)c1ccc(-c2ccccc2)cc1)C(=O)O)NCc1ccc(F)cc1 | 85 | 80 | – | – | –
19 | > 10000 | 880 | 63 | 39 | 1610 | – | O=C(CC[C@H](NS(=O)(=O)c1ccc(-c2ccccc2)cc1)C(=O)O)NCc1ccccc1Cl | 68 | 80 | – | – | –
20 | > 10000 | 636 | 73.2 | 64.8 | 2410 | – | O=C(CC[C@H](NS(=O)(=O)c1ccc(-c2ccccc2)cc1)C(=O)O)NC1CCCCC1 | 70 | 80 | – | – | –
21 | – | 2090 | – | – | – | – | O=C(CC[C@H](NS(=O)(=O)c1ccc(-c2ccccc2)cc1)C(=O)O)NCc1ccc(Cl)cc1 | – | – | – | – | –

From ChEMBL document CHEMBL3826960, “Robust design of some selective matrix metalloproteinase-2 inhibitors over matrix metalloproteinase-9 through in silico/fragment-based lead identification and de novo lead modification: Syntheses and biological assays” (Bioorg Med Chem, 2016)
